Targets include Cytochrome P450 3A4 (Homo sapiens, UniProt P08684); Cytochrome P450 2C9 (Homo sapiens, UniProt P11712); Cytochrome P450 2D6 (Homo sapiens, UniProt P10635).
A further series deals with T1, Cytochrome P450 1A2 (Homo sapiens, UniProt P05177).
T1 sequence (P05177 whole entry): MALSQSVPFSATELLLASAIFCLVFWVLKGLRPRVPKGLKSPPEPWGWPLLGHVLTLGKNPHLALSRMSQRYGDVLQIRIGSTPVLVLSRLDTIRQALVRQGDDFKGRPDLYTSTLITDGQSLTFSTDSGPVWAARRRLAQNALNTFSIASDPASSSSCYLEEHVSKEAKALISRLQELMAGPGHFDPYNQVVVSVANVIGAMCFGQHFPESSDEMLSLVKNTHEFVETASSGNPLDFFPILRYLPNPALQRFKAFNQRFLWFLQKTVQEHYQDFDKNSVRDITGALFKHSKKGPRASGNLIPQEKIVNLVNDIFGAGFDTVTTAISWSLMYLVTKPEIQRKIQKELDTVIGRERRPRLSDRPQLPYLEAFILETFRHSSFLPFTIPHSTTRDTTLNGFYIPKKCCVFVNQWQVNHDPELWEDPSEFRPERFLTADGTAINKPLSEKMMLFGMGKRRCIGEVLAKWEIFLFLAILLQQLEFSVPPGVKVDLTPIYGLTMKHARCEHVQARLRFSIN

Series [1] in a line: Luminescence Cell-Based Dose Response to Identify Activators of Luciferase Translation or Activity in H4-C Neuroglioblastoma Cells. [Related pubchem assays: 1829 (Project Summary), 1814 (Primary HTS)]. In kind it is functional.
In series [2] the target is T2, Tyrosine-protein phosphatase non-receptor type 22 (Homo sapiens, UniProt Q9Y2R2).
T2 sequence (Q9Y2R2 whole entry): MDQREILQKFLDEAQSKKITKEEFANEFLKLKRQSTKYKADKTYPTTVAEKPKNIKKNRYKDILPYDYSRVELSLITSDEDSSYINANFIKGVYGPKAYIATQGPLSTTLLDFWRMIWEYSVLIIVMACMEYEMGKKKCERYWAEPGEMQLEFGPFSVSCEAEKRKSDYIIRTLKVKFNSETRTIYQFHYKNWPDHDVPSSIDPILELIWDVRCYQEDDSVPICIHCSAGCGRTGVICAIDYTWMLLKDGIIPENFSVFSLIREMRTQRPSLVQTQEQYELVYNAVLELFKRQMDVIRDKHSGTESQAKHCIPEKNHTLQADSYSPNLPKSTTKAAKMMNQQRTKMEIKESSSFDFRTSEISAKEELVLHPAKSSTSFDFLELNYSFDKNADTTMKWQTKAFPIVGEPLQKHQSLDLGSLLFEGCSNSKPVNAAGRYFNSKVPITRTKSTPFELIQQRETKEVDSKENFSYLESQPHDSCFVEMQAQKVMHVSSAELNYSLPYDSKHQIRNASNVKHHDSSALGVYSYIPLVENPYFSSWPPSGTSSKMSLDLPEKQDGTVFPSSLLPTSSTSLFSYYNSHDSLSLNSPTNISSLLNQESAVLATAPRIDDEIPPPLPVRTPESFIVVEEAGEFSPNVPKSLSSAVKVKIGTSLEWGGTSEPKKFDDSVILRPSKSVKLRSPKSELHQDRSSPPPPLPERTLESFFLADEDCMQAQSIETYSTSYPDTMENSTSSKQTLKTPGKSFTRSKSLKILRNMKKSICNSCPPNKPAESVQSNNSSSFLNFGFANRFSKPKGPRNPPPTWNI
The format is functional.

The subject of another series is H4. In words: Luminescence Cell-Based Dose Response HTS to Identify Activators of 5'UTR Stem-Loop Driven Prion Protein mRNA Translation in H4 Neuroglioblastoma Cells. [Related pubchem assays: 1829 (Project Summary), 1814 (Primary HTS)]. To be noted: Homo sapiens. The format is functional.
The nature of series [3]: Luminescence Cell-Based Dose Confirmation to Identify Activators of 5'UTR Stem-Loop Driven Alpha-Synuclein mRNA Translation in H4 Neuroglioblastoma Cells. [Related pubchem assays: 1829 (Project Summary), 1814 (Primary HTS)]. In kind it is functional.
Series [4] has as its target T3, Tyrosine-protein phosphatase non-receptor type 7 (Homo sapiens, UniProt P35236).
T3 sequence (P35236 whole entry): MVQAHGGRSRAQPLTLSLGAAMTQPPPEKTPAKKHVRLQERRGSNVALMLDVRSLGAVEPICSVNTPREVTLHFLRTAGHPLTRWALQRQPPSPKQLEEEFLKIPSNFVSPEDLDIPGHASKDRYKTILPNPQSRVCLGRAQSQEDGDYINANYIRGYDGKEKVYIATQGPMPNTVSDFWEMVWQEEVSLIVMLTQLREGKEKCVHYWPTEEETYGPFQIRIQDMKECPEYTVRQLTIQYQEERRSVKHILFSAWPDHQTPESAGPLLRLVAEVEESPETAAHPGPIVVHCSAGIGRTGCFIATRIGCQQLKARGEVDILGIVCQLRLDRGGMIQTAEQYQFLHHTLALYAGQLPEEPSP
The format is functional.

The target in series [5] is T2, Tyrosine-protein phosphatase non-receptor type 22. In kind it is functional. The source holds these as a separate data set.
The nature of series [6]: Luminescence Cell-Based Dose Confirmation HTS to Identify Activators of 5'UTR Stem-Loop Driven Alpha-Synuclein mRNA Translation in H4 Neuroglioblastoma Cells. [Related pubchem assays: 1829 (Project Summary), 1814 (Primary HTS)]. The format is functional.
A short description of series [7]: Luminescence Cell-Based Dose Response HTS to Identify Activators of Luciferase Translation or Activity in H4 […] Cells. [Related pubchem assays: 1829 (Project Summary), 1814 (Primary HTS)]. In kind it is functional.
Series [8] can be described thus: Luminescence Cell-Based Dose Response to Identify Activators of 5'UTR Stem-Loop Driven Prion Protein mRNA Translation in H4-C Neuroglioblastoma Cells. [Related pubchem assays: 1829 (Project Summary), 1814 (Primary HTS)]. The format is functional.
The subject of another series is HeLa. In words: ATP-based viability loss in HeLa cells – cell-based, CellTiter-Glo luminescence, cherry-pick samples, cytotoxicity control for MITF activator project, dose response (AID 540259). The format is functional. The settings on record: Homo sapiens. In general terms: In ATP-based viability assays light output follows the ATP content of the culture.
Another series has as its target Genome polyprotein (dengue virus type 2, UniProt P29990). The experiment in a line: flavivirus cap methylation enzyme inhibition – biochemical, confirmation dose response, primary screen (AID 588689). In kind it is functional.
Series [9] has as its system Vero. The experiment in a line: cells. In kind it is functional, cell-based. The settings on record: Chlorocebus sabaeus.
The nature of series [10]: viability of uninfected HEp-2 cells – cell-based, HTS, cytotoxicity control for RSV inhibitor project, dose response (AID 2410). In kind it is functional. The settings on record: human respiratory syncytial virus.
Series [11] concerns the target Dual specificity tyrosine-phosphorylation-regulated kinase 1A (Rattus norvegicus, UniProt Q63470). The format is biochemical, Homo sapiens.
In series [12] the target is T4, Polyadenylate-binding protein 1 (Homo sapiens, UniProt P11940). In words: MLLE binding blockers, Cy5 peptide tracer – biochemical, fluorescence polarization, Cy5-PAM2 peptide, secondary, miRNA deadenylation inhibitor project, dose response (AID 602260). The settings on record: read-out: IC50_Mean. The format is functional. Background: In fluorescence polarisation assays a small probe gives low polarisation when free and higher when bound to something large.

Series [13] has as its target T4, Polyadenylate-binding protein 1. In words: MLLE domain peptide-binding blockers, IC50 – biochemical, fluorescence polarization, FITC-PAM2 peptide, dose response (AID 602259). The format is functional. To be noted: read-out: IC50_Mean.
Series [14] relates to Vero. In words: viability of Vero cells under compound – cytotoxicity control for flavivirus capping enzyme inhibitors (AID 588742). In kind it is functional. To be noted: Chlorocebus sabaeus.
Another series concerns the target Cytochrome P450 2C19 (Homo sapiens, UniProt P33261). In words: Cytochrome panel assay with activity outcomes. Panel member name: p450-cyp2c19 Compounds with AC50 equal or less than 10 uM are considered active. In kind it is functional. To be noted: read-out: AC50.
For series [15], the system named is Vero. In words: cells. The format is functional. The settings on record: Chlorocebus sabaeus.
Series [16] deals with Induced myeloid leukemia cell differentiation protein Mcl-1 (Homo sapiens, UniProt Q07820). In kind it is functional.
In another series the test system is Streptococcus. The experiment in a line: GAS UMAA2166 growth inhibition – luminescence, BacTiterGlo, counter-screen for streptokinase expression inhibitor project, dose response (AID 1915).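 Also: potency for reduction of bacterial viability or growth.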 In kind it is functional, organism-based.
Series [17] has as its target FAD-linked sulfhydryl oxidase ALR (Homo sapiens, UniProt P55789). In words: ALR-catalysed DTT oxidation blockers – biochemical, H2O2 detection, luminescence, cherry-pick, dose response (AID 493248).
Series [18] addresses T5, Fatty acid synthase (Homo sapiens, UniProt P49327). The experiment in a line: inhibition of human FAS-TE enzyme activity – biochemical, endpoint fluorescence intensity, uHTS hits, dose response (AID 624327).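 Also: fluorescence from hydrolysis of an O-methyl fluorescein acyl ester substrate by the enzyme.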 In kind it is functional.
For series [19], the system named is Streptococcus sp. 'group A'. In words: Streptococcus pyogenes SK(-)GAS viability under kanamycin – luminescence, BacTiterGlo, confirmation, counter-screen for streptokinase expression inhibitor project, dose response (AID 1900). In kind it is functional, organism-based. (In general: The purpose of a counterscreen is to sort out artefacts and off-target activity.)

The target of series [20] is T5, Fatty acid synthase. The experiment in a line: inhibition of human FAS-TE enzyme activity – biochemical, kinetic fluorescence intensity, dose response (AID 624326).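 Also: rate of fluorescence rise from hydrolysis of a fluorogenic O-methyl fluorescein ester substrate.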 The format is functional.
In another series the target is T6, Streptokinase A (Streptococcus pyogenes serotype M1, UniProt P10520).
T6 sequence (P10520 whole entry): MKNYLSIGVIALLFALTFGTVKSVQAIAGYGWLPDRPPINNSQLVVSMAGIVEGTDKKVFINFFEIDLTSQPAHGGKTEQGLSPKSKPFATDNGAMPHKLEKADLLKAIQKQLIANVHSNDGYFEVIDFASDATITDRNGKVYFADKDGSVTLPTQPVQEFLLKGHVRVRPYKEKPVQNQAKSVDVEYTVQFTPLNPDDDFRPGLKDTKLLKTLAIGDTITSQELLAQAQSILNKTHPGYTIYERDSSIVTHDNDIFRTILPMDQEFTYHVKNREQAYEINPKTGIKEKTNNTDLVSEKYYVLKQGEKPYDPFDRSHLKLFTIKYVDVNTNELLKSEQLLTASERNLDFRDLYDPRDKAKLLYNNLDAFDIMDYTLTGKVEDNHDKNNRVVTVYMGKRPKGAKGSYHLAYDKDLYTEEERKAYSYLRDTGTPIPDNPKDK
In words: viability-normalized secreted streptokinase activity reduction – plasminogen activation absorbance, OD405, dose response (AID 1914).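 Also: secreted streptokinase activity via plasminogen activation per viability signal from cell pellet.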 The format is functional, Streptococcus pyogenes M1 GAS.

Data on 12 compounds can be found in ChEMBL document CHEMBL1201862, “PubChem BioAssay data set” (2004).

Molecules are shown by their SMILES. The source made the active and inactive calls.

T4 sequence (P11940 whole entry): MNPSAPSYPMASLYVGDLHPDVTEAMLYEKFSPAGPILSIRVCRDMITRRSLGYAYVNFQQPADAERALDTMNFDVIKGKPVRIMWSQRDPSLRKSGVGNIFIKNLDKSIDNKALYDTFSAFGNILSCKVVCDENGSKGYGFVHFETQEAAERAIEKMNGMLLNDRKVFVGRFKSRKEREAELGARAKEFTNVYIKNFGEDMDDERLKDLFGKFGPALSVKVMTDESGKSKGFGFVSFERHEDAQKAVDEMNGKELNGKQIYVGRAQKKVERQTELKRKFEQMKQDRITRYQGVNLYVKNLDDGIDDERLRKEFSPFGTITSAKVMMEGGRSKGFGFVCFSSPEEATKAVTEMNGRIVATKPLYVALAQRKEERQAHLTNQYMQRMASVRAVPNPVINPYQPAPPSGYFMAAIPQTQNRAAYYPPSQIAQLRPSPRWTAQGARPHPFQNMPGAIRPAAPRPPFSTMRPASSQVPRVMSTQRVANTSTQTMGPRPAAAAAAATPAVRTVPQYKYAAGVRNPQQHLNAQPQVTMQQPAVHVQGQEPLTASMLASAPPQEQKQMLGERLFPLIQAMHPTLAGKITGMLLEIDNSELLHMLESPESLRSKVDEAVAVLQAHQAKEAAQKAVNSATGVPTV
T5 sequence (P49327 whole entry): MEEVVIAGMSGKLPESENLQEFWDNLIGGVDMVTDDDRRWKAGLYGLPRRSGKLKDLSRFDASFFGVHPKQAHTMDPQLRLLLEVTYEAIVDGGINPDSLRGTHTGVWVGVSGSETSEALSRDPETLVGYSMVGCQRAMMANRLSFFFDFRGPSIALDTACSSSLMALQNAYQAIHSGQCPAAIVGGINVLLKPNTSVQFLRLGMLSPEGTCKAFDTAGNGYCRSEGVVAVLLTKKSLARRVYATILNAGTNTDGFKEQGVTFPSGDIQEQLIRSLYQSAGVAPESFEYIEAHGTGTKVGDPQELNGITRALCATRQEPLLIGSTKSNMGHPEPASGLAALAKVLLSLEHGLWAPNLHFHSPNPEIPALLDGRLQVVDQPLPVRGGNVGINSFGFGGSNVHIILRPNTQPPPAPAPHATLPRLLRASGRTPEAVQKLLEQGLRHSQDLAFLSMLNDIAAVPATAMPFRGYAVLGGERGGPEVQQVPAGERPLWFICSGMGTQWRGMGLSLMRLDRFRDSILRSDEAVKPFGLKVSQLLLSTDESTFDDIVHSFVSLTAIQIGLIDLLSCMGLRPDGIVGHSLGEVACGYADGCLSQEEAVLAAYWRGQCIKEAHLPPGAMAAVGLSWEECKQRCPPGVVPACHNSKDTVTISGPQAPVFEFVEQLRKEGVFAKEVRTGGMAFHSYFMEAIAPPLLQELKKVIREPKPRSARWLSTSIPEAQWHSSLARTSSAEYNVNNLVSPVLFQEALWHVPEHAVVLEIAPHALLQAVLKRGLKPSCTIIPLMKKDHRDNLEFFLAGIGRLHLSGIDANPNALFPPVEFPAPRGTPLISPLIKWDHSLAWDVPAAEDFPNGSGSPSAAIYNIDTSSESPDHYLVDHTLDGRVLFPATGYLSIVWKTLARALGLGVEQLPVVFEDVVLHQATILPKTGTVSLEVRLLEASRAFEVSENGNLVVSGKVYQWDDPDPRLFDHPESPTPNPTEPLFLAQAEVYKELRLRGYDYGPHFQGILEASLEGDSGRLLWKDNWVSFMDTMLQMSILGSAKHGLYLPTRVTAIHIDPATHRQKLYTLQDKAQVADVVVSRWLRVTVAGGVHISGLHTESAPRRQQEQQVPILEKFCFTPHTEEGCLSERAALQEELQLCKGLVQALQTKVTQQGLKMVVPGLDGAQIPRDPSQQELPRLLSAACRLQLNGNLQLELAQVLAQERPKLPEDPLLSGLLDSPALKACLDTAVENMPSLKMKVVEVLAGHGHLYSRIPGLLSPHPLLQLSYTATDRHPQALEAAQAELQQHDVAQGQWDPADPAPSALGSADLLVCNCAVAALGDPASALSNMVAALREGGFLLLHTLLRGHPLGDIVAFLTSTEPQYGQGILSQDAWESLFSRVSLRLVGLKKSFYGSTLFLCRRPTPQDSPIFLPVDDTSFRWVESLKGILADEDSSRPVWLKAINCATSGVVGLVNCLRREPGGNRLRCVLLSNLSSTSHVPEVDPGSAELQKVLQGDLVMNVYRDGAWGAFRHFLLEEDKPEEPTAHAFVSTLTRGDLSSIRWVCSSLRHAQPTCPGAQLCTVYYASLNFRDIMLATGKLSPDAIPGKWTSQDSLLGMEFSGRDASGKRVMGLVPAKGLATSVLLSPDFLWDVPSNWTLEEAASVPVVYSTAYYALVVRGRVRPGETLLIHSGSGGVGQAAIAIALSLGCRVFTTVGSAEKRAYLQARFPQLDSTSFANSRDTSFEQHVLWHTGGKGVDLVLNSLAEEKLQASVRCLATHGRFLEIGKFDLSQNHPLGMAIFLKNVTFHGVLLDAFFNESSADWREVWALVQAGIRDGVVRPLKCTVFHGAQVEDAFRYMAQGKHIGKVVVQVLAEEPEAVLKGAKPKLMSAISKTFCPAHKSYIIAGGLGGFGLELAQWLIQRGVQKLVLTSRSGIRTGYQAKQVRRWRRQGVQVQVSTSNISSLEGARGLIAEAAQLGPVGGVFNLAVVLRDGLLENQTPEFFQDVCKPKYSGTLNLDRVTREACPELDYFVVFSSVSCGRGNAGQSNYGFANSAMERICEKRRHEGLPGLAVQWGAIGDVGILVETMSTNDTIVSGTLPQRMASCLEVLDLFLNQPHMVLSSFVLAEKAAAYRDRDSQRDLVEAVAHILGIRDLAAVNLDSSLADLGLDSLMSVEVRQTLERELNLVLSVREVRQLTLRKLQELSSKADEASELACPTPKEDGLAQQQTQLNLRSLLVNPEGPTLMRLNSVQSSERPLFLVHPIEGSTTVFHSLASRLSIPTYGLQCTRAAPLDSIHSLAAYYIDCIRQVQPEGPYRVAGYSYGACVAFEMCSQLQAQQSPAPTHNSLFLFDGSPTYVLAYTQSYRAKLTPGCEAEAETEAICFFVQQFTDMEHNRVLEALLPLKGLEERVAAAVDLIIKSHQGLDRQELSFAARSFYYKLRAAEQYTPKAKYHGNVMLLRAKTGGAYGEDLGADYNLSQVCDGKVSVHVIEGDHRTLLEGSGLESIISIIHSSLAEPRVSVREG
Chain of Cytochrome P450 3A4 (P08684 whole entry): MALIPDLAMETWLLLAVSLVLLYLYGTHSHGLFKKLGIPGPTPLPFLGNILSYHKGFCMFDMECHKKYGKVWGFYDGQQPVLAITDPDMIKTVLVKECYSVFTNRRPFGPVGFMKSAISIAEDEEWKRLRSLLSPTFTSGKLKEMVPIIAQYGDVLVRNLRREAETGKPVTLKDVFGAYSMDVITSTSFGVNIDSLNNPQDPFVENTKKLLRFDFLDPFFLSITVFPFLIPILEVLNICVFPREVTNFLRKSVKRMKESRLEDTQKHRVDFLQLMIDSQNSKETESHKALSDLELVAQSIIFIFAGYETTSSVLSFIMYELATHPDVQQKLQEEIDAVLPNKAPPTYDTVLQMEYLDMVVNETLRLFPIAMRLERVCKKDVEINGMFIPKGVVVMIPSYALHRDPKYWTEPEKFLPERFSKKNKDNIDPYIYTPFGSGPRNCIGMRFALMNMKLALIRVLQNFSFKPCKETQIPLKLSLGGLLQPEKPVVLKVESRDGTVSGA
Chain of Cytochrome P450 2D6 (P10635 whole entry): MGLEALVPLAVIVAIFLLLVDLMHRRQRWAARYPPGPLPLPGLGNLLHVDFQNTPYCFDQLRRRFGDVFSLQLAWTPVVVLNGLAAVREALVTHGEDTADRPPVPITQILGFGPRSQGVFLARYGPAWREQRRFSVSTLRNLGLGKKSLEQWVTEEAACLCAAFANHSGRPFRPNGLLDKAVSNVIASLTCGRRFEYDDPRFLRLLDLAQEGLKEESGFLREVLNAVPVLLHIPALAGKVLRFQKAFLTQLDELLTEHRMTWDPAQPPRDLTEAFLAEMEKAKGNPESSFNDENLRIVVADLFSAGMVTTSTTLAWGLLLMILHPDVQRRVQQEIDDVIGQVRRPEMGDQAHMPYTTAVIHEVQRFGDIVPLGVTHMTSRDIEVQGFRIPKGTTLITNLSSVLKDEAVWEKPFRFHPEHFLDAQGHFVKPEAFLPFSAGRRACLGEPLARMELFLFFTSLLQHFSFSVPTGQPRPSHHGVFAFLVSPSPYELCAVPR
Chain of Cytochrome P450 2C19 (P33261 whole entry): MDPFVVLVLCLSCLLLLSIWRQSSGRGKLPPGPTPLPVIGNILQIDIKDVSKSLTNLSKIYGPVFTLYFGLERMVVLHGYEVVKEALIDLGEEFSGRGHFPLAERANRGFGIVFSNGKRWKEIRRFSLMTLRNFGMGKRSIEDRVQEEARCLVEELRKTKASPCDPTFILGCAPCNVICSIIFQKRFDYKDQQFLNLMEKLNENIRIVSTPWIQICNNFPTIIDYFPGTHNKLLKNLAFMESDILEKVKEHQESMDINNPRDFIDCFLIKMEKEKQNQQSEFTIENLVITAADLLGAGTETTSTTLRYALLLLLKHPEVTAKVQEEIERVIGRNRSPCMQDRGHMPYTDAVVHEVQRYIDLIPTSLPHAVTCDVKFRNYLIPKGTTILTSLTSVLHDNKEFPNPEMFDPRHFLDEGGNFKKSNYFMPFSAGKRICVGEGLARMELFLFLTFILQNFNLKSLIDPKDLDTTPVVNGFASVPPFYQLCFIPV
Chain of Induced myeloid leukemia cell differentiation protein Mcl-1 (Q07820 whole entry): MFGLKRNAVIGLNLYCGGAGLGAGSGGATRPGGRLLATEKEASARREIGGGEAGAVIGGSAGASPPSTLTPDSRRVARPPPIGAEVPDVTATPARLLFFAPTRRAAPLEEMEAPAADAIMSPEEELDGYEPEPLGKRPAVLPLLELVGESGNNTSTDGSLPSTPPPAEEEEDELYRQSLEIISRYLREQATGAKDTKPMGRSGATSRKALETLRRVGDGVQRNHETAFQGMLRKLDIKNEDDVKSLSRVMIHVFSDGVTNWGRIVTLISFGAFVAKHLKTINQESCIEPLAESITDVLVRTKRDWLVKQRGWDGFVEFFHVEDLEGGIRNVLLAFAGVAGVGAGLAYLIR

What is called AC50 is the midpoint of the concentration-response curve, whichever way the signal moves. On to `COc1ccc(NC(=O)N2CC[C@@]3(CCCN(C(=O)c4c(C)noc4C)C3)C2)cc1`, for which the AC50 on Cytochrome P450 3A4 is 7.94 µM (inconclusive); at Cytochrome P450 2C9, “inconclusive”; on Cytochrome P450 1A2 it was “inconclusive”.

What is called EC50 is the midpoint of the concentration-response curve. As for `CCCCCOc1ccc(CN2CCOCC2)cc1Cl`, the EC50 in series [1] was 1.05 µM (active); with H4, 35.5 µM (active); in series [3] it was 0.731 µM (active); in [6], < 0.1 µM (active); in series [7], < 0.1 µM (inconclusive); in series [8] it was 1.3 µM (active). The IC50 in series [2], in series [4] and in series [5] was > 79.4 µM (inactive) in each case.

`CCCC(=O)Nc1ccc(C#Cc2ccccc2)cc1`: the concentration at half-maximal activity (AC50) with HeLa was 173 µM (active).

Turning to `CCCCc1nc2cc(C(=O)N3CCN(c4nc(C)cnc4C)CC3)ccc2o1`, the AC50 in the series on HeLa was 47.3 µM (active).

For `CCCOC(=O)c1c(-c2ccc(C)cc2C)csc1NC(=O)C1C2CCC(O2)C1C(=O)O` (stereo not given), the IC50 at Genome polyprotein is 55 µM (active); in [2] it was > 79.4 µM (inactive); in series [4], > 79.4 µM (inactive); in [5] it was > 79.4 µM (inactive).

Usually CC50 stands for the concentration at which the toxic effect on the cells reaches its halfway point. Turning to `CSc1nnc2c3ccccc3n(CCc3ccccc3)c2n1`, the IC50 in the series with Vero [9] was > 12.5 µM (active). In addition, in series [10], the CC50 is > 50 µM (active).

On to `Fc1ccccc1N=C(S)Nc1cccc2cnccc12`, for which the AC50 in series [11] was 5.56 µM (active). The IC50 in [12] and in series [13] was > 66 µM (inactive) in each case. The CC50 in the series on Vero [14] is > 40 µM (active).

Turning to `Cc1ccc(-c2nc(CCN3C(=O)c4ccccc4C3=O)cs2)cc1`, the results for the IC50 in the series on Vero [9] and in “cells” were > 25 µM (active) and 47.1 µM (active), respectively.

As for `COCCCNC(=O)C1CCC(=O)N1Cc1ccccc1Cl` (stereo not given), the AC50 is 25.1 µM (inconclusive) on Cytochrome P450 2D6, 22.4 µM (inconclusive) at Cytochrome P450 2C19 and “inconclusive” on Cytochrome P450 1A2.

In the case of `COC(=O)[C@@]1(Cc2ccc(F)cc2)[C@H]2c3cc(C(=O)N(C)C)n(Cc4cc(F)c(F)c(F)c4)c3C[C@H]2CN1C(=O)c1ccccc1`, at Cytochrome P450 1A2, the AC50 entry is “inconclusive”.

For `CN(C)CC1CCC/C(=C\c2ccc(OC(=O)/C=C/c3ccc(Cl)c(Cl)c3)cc2)C1=O` (stereo not given), the CC50 with Vero [15] was 11.5 µM (active). Moreover, the IC50 in the series on Vero [9] is > 25 µM (active).

Consider `C/C(=N\Nc1ccc(C(=O)O)cc1)c1ccc2c(c1)Nc1ccccc1S2`, for which the IC50 is 36 µM (active) in series [16], 11.7 µM (active) at Fatty acid synthase [18] and 6.48 µM (active) on Fatty acid synthase [20]. In addition, the EC50 was 7.08 µM (active) with Streptococcus, 3.9 µM (active) in [19] and > 150 µM (not active) on Streptokinase A. Further, the AC50 in series [17] was 0.013 µM (active); in the series on HeLa it was 48.5 µM (active).
